Data from US5817816A (Meiji Seika Kaisha, Ltd., priority 1997, dated 1998).

What follows are compounds tested against T1, progesterone receptor (Sus scrofa, UniProt D0EWS6) (assay: Progesterone receptor binding inhibition ([3H]-progesterone, hog uterus cytosol)). Details: [3H]-progesterone ligand, 60 min at 4° C.
T1 construct: from tissue; host or cells: hog uterus, 100,000×g supernatant (cytosol)
T1 sequence (D0EWS6 1-934): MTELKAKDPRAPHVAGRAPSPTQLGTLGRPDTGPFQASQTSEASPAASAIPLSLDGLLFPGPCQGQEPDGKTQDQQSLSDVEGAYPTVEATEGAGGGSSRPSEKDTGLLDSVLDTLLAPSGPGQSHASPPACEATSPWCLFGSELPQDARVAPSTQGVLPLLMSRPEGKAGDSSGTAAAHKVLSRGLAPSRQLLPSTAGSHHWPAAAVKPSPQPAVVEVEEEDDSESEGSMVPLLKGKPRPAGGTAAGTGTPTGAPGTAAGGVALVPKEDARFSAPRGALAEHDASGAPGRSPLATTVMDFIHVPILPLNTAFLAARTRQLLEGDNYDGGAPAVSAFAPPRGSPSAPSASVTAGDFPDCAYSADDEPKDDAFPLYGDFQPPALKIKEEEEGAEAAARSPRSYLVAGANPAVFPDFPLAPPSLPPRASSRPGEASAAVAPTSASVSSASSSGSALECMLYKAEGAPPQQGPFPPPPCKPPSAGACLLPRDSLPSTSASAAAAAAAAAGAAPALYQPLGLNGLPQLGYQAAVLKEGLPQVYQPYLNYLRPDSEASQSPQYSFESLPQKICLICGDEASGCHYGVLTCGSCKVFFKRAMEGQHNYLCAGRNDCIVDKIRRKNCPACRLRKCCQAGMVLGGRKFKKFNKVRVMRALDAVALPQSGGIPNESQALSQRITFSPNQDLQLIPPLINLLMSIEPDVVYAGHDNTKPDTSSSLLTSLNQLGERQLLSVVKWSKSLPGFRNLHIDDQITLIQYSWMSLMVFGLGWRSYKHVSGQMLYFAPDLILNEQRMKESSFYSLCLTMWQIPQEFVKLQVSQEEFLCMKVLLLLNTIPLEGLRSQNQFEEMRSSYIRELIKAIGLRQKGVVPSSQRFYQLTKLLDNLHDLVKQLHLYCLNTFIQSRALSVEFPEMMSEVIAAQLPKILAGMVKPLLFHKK
Set-up: species or system hogs
Procedure: That is, uteri taken from hogs were disrupted in 5 mM phosphate buffer by means of Polytron homogenizer, and this solution was centrifuged (100,000×g, 30 min) to separate the supernatant, thereby preparing a cytosol containing progesterone receptor. A given concentration of a test drug solution (10 μl) was added to a solution composed of 50 μl of the cytosol obtained Just above (2-3 mg protein/ml) and 40 μl of a solution of [^3 H]-progesterone as a ligand (3.84 TBq/mM, 18.5 kBq/ml), and they were incubated in a test tube for 60 min at 4° C. to effect a reaction. Then, 100 μl of a 0.5% activated carbon solution was added to the reaction solution, and the mixture was allowed to stand for 10 min and then centrifuged (2,000×g, 10 min). The radioactivity of the supernatant was measured with a liquid scintillation counter.
Separately, the radioactivity was measured in the same manner as described above, except that no test drug was added. Further, the radioactivity was measured in the same manner as described above, except that 10 μl of Medroxyprogesterone Acetate (MPA) (10 μg/ml) was added instead of the test drug. The radioactivity with no test drug added was defined as the amount of total binding of [^3 H]-progesterone to the cytosol, and the radioactivity with MPA added was defined as the amount of non-specific binding. […] [formula]

| Structure (SMILES) | IC50 [nM] |
| --- | --- |
| CC(=O)O[C@H]1C=CC2=C[C@H]3OC(=O)C(C)=C3C[C@]2(C)[C@H]1C [Example 15, 3β-Acetoxyeremophila-1(2),7(11),9(10)-trien-12,8β-olide] | < 100 |
| CC(=O)O[C@H]1CC=C2C=C3OC(=O)C(C)=C3C[C@]2(C)[C@H]1C [Example 7b, 3β-Acetoxyeremophila-1(10),7(11),8(9)-trien-12,8-olide] | < 100 |
| CC(=O)O[C@H]1CC(Cl)=C2C=C3OC(=O)C(C)=C3C[C@]2(C)[C@H]1C [Example 7a, 3β-Acetoxy-1-chloroeremophila-1(10),7(11),8(9)-trien-12,8-olide] | < 100 |
| CCOC1=C2C=C3OC(=O)C(C)=C3C[C@]2(C)[C@@H](C)[C@@H](OC(C)=O)C1 [Example 21b, 3β-Acetoxy-1-ethoxyeremophila-1(10),7(11),8(9)-trien-12,8-olide] | 279 |
| CC1=C2C[C@@]3(C)C(=CC=C[C@@H]3C)C=C2OC1=O [Example 16, Eremophila-1(10),2(3),7(11),8(9)-tetraen-12,8-olide] | 400 |
| CC(=O)O[C@H]1CC(Sc2ccccc2)=C2C=C3OC(=O)C(C)=C3C[C@]2(C)[C@H]1C [Example 21a, 3β-Acetoxy-1-phenylthioeremophila-1(10),7(11),8(9)-trien-12,8-olide] | 700 |
| COC(=O)C(C)=C1C[C@@]2(C)C(=CC1=O)C=C[C@H](OC(C)=O)[C@@H]2C [Example 14a, 3β-Acetoxy-8-oxoeremophila-1(2),7(11),9(10)-trien-12-oic acid methyl ester] | 600 |
